Source: the supplement of paper PMC10331698
± gives the standard deviation of the averaged measurements.

Columns and labels:
Assay in all cases: level (log10 ratio to DMSO vehicle control); higher = higher biomarker level / cell amount than vehicle control
[1] = compound: O=S(=O)(O)CCC(F)(F)C(F)(F)C(F)(F)C(F)(F)C(F)(F)C(F)(F)C(F)(F)C(F)(F)F [8:2 Fluorotelomer sulfonic acid] (in DMSO)
Procedure: (§1)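 BioMAP Diversity Plus panel of 12 human primary cell co-culture systems (3C, 4H, LPS, SAg, BT, BF4T, BE3C, CASM3C, HDF3CGF, KF3CT, MyoF, Mphg). Compounds were added 1 h before stimulation and left for 24 h (MyoF 48 h; BT 72 h for soluble read-outs or 6 d for IgG). Biomarkers were read by ELISA, cytotoxicity by SRB, PBMC viability and proliferation by Alamar Blue. Each well value was divided by the mean of 8 DMSO control wells on the same plate and log10 transformed; duplicate blinded samples were tested at 4 concentrations.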

[2] = compound: O=C(O)CCC(F)(C(F)(F)F)C(F)(F)F [4,4-bis(Trifluoromethyl)-4-fluoropropanoic acid] (in DMSO)
Procedure: as §1

[3] = compound: CCOC(=O)CC(=O)C(F)(F)C(F)(F)F [Ethyl pentafluoropropionyl acetate] (in DMSO)
Procedure: as §1

[4] = compound: O=S(=O)(O)C(F)(F)C(F)(F)OC(F)(F)C(F)(F)F [Perfluoro(2-ethoxyethane)sulfonic acid] (in DMSO)
Procedure: as §1

[5] = compound: O=C(O)C=C(C(F)(F)F)C(F)(F)F [3,3-Bis(trifluoromethyl)-2-propenoic acid] (in DMSO)
Procedure: as §1

[6] = compound: O=C(O)C(F)(F)OC(F)(F)C(F)(F)OC(F)(F)C(F)(F)OC(F)(F)C(F)(F)C(F)(F)C(F)(F)F [Perfluoro-3,6,9-trioxatridecanoic acid] (in DMSO); conditions: 6700 nM
Procedure: as §1

[7] = compound: NS(=O)(=O)C(F)(F)C(F)(F)C(F)(F)C(F)(F)C(F)(F)C(F)(F)C(F)(F)C(F)(F)F [Perfluorooctanesulfonamide] (in DMSO)
Procedure: as §1

Test System: KF3CT:CD54/ICAM-1
- level (log10) ([1]; 6700 nM): -0.026 ± 0.02
- level (log10) ([1]; 20000 nM): -0.0495 ± 0.018
- level (log10) ([1]; 60000 nM): -0.0515 ± 0.005
- level (log10) ([2]; 6700 nM): 0.0055 ± 0.0078
- level (log10) ([2]; 20000 nM): -0.0085 ± 0.0092
- level (log10) ([2]; 60000 nM): 0.01 ± 0.0085
- level (log10) ([3]; 6700 nM): -0.003 ± 0.024
- level (log10) ([3]; 20000 nM): 0.006 ± 0.014
- level (log10) ([3]; 60000 nM): 0.0075 ± 0.03
- level (log10) ([4]; 6700 nM): -0.002 ± 0.0099
- level (log10) ([4]; 20000 nM): -0.0275 ± 0.0064
- level (log10) ([4]; 60000 nM): -0.0165 ± 0.00071
- level (log10) ([5]; 6700 nM): -0.007 ± 0.0057
- level (log10) ([5]; 20000 nM): 0.008 ± 0.0071
- level (log10) ([5]; 60000 nM): 0.022 ± 0.016
- level (log10) [6]: 0.019 ± 0.0042
- level (log10) ([7]; 6700 nM): 0.0155 ± 0.023
- level (log10) ([7]; 20000 nM): -0.0235 ± 0.028

Test System: KF3CT:CXCL8/IL-8
- level (log10) ([1]; 6700 nM): 0.016 ± 0.038
- level (log10) ([1]; 20000 nM): -0.03 ± 0.023
- level (log10) ([1]; 60000 nM): -0.131 ± 0.036
- level (log10) ([2]; 6700 nM): -0.023 ± 0.0028
- level (log10) ([2]; 20000 nM): -0.0105 ± 0.00071
- level (log10) ([2]; 60000 nM): -0.0115 ± 0.013
- level (log10) ([3]; 6700 nM): -0.012 ± 0.018
- level (log10) ([3]; 20000 nM): -0.0155 ± 0.0021
- level (log10) ([3]; 60000 nM): -0.0005 ± 0.029
- level (log10) ([4]; 6700 nM): 0.0305 ± 0.016
- level (log10) ([4]; 20000 nM): 0.0045 ± 0.022
- level (log10) ([4]; 60000 nM): 0.036 ± 0.016
- level (log10) ([5]; 6700 nM): -0.004 ± 0.0028
- level (log10) ([5]; 20000 nM): 0.0025 ± 0.0092
- level (log10) ([5]; 60000 nM): 0.0245 ± 0.016
- level (log10) [6]: -0.047 ± 0.0042
- level (log10) ([7]; 6700 nM): -0.0135 ± 0.021
- level (log10) ([7]; 20000 nM): -0.0525 ± 0.018

Test System: KF3CT:CXCL9/MIG
- level (log10) ([1]; 6700 nM): 0.005 ± 0.017
- level (log10) ([1]; 20000 nM): 0.003 ± 0.0099
- level (log10) ([1]; 60000 nM): 0.01 ± 0.0057
- level (log10) ([2]; 6700 nM): 0.01 ± 0.011
- level (log10) ([2]; 20000 nM): 0.0005 ± 0.0078
- level (log10) ([2]; 60000 nM): 0.006 ± 0.016
- level (log10) ([3]; 6700 nM): 0.002 ± 0.0028
- level (log10) ([3]; 20000 nM): 0.0015 ± 0.0078
- level (log10) ([3]; 60000 nM): -0.0025 ± 0.0064
- level (log10) ([4]; 6700 nM): 0.0105 ± 0.0064
- level (log10) ([4]; 20000 nM): -0.0015 ± 0.012
- level (log10) ([4]; 60000 nM): 0.0155 ± 0.0021
- level (log10) ([5]; 6700 nM): 0.0015 ± 0.005
- level (log10) ([5]; 20000 nM): -0.003 ± 0.0085
- level (log10) ([5]; 60000 nM): 0.006 ± 0.011
- level (log10) [6]: -0.0395 ± 0.042
- level (log10) ([7]; 6700 nM): 0.0075 ± 0.0035
- level (log10) ([7]; 20000 nM): -0.032 ± 0.034

Test System: KF3CT:CXCL10/IP-10
- level (log10) ([1]; 6700 nM): -0.015 ± 0.0028
- level (log10) ([1]; 20000 nM): -0.044 ± 0.0042
- level (log10) ([1]; 60000 nM): -0.0495 ± 0.00071
- level (log10) ([2]; 6700 nM): -0.0055 ± 0.0021
- level (log10) ([2]; 20000 nM): -0.0005 ± 0.00071
- level (log10) ([2]; 60000 nM): -0.0005 ± 0.0064
- level (log10) ([3]; 6700 nM): -0.002 ± 0.013
- level (log10) ([3]; 20000 nM): -0.009 ± 0.0057
- level (log10) ([3]; 60000 nM): -0.009 ± 0.0071
- level (log10) ([4]; 6700 nM): 0.0025 ± 0.013
- level (log10) ([4]; 20000 nM): -0.0075 ± 0.011
- level (log10) ([4]; 60000 nM): -0.009
- level (log10) ([5]; 6700 nM): -0.01 ± 0.013
- level (log10) ([5]; 20000 nM): -0.027 ± 0.0014
- level (log10) ([5]; 60000 nM): -0.0225 ± 0.019
- level (log10) [6]: -0.282 ± 0.12
- level (log10) ([7]; 6700 nM): -0.021 ± 0.0028
- level (log10) ([7]; 20000 nM): -0.205 ± 0.0092

Test System: KF3CT:IL-1alpha
- level (log10) ([1]; 6700 nM): -0.041 ± 0.027
- level (log10) ([1]; 20000 nM): -0.137 ± 0.033
- level (log10) ([1]; 60000 nM): -0.0655 ± 0.046
- level (log10) ([2]; 6700 nM): -0.008 ± 0.021
- level (log10) ([2]; 20000 nM): -0.0105 ± 0.0064
- level (log10) ([2]; 60000 nM): -0.0345 ± 0.043
- level (log10) ([3]; 6700 nM): -0.021 ± 0.011
- level (log10) ([3]; 20000 nM): -0.0345 ± 0.022
- level (log10) ([3]; 60000 nM): -0.001 ± 0.031
- level (log10) ([4]; 6700 nM): 0.0005 ± 0.0064
- level (log10) ([4]; 20000 nM): -0.013 ± 0.025
- level (log10) ([4]; 60000 nM): 0.0045 ± 0.05
- level (log10) ([5]; 6700 nM): -0.001 ± 0.0057
- level (log10) ([5]; 20000 nM): -0.016 ± 0.016
- level (log10) ([5]; 60000 nM): -0.0185 ± 0.032
- level (log10) [6]: -0.041 ± 0.03
- level (log10) ([7]; 6700 nM): 0.074 ± 0.0042
- level (log10) ([7]; 20000 nM): -0.056 ± 0.02

Test System: KF3CT:MMP-9
- level (log10) ([1]; 6700 nM): -0.009 ± 0.0014
- level (log10) ([1]; 20000 nM): 0.0165 ± 0.0078
- level (log10) ([1]; 60000 nM): -0.0335 ± 0.018
- level (log10) ([2]; 6700 nM): -0.026 ± 0.025
- level (log10) ([2]; 20000 nM): -0.0195 ± 0.019
- level (log10) ([2]; 60000 nM): -0.008 ± 0.0085
- level (log10) ([3]; 6700 nM): -0.0165 ± 0.013
- level (log10) ([3]; 20000 nM): -0.0005 ± 0.012
- level (log10) ([3]; 60000 nM): -0.011 ± 0.0099
- level (log10) ([4]; 6700 nM): 0.009 ± 0.0085
- level (log10) ([4]; 20000 nM): 0.036 ± 0.016
- level (log10) ([4]; 60000 nM): 0.0515 ± 0.00071
- level (log10) ([5]; 6700 nM): -0.029 ± 0.025
- level (log10) ([5]; 20000 nM): -0.031 ± 0.041
- level (log10) ([5]; 60000 nM): -0.078 ± 0.028
- level (log10) [6]: -0.278 ± 0.039
- level (log10) ([7]; 6700 nM): 0.0365 ± 0.026
- level (log10) ([7]; 20000 nM): -0.274 ± 0.023

Test System: KF3CT:PAI-I
- level (log10) ([1]; 6700 nM): -0.0065 ± 0.022
- level (log10) ([1]; 20000 nM): -0.029 ± 0.014
- level (log10) ([1]; 60000 nM): -0.0255 ± 0.019
- level (log10) ([2]; 6700 nM): -0.0035 ± 0.00071
- level (log10) ([2]; 20000 nM): -0.0165 ± 0.0092
- level (log10) ([2]; 60000 nM): 0.003 ± 0.0071
- level (log10) ([3]; 6700 nM): -0.02 ± 0.023
- level (log10) ([3]; 20000 nM): -0.01 ± 0.035
- level (log10) ([3]; 60000 nM): -0.0055 ± 0.026
- level (log10) ([4]; 6700 nM): -0.01
- level (log10) ([4]; 20000 nM): -0.0145 ± 0.0078
- level (log10) ([4]; 60000 nM): -0.009 ± 0.013
- level (log10) ([5]; 6700 nM): 0.004 ± 0.013
- level (log10) ([5]; 20000 nM): 0.002 ± 0.013
- level (log10) ([5]; 60000 nM): -0.0055 ± 0.018
- level (log10) [6]: -0.126
- level (log10) ([7]; 6700 nM): 0.03 ± 0.027
- level (log10) ([7]; 20000 nM): -0.108 ± 0.054

Test System: KF3CT:SRB
- level (log10) ([1]; 6700 nM): -0.008 ± 0.0014
- level (log10) ([1]; 20000 nM): -0.0145 ± 0.0021
- level (log10) ([1]; 60000 nM): -0.004 ± 0.0071
- level (log10) ([2]; 6700 nM): -0.003 ± 0.0042
- level (log10) ([2]; 20000 nM): 0.004 ± 0.0071
- level (log10) ([2]; 60000 nM): 0.008 ± 0.0099
- level (log10) ([3]; 6700 nM): -0.002
- level (log10) ([3]; 20000 nM): 0.0005 ± 0.0035
- level (log10) ([3]; 60000 nM): -0.004 ± 0.0014
- level (log10) ([4]; 6700 nM): -0.0065 ± 0.00071
- level (log10) ([4]; 20000 nM): -0.0035 ± 0.0035
- level (log10) ([4]; 60000 nM): 0.007 ± 0.0099
- level (log10) ([5]; 6700 nM): -0.0015 ± 0.0021
- level (log10) ([5]; 20000 nM): 0.003
- level (log10) ([5]; 60000 nM): 0.024 ± 0.0071
- level (log10) [6]: -0.0355 ± 0.0035
- level (log10) ([7]; 6700 nM): -0.0035 ± 0.015
- level (log10) ([7]; 20000 nM): -0.0455 ± 0.029
